# Test results published in ChEMBL document CHEMBL1140430, “Novel indole-based peroxisome proliferator-activated receptor agonists: design, SAR, structural biology, and biological activities” (J Med Chem, 2005).
# The source made the active and inactive calls. The calls are words filed in the database; no cut-off is given here.
# Assays:
# [1] = biological target: T1, Peroxisome proliferator-activated receptor alpha (Homo sapiens, UniProt Q07869); test: Functional activity at human PPAR alpha in Huh7 cells by transactivation assay; assay type: cell-based, Huh-7
# T1 sequence (Q07869 whole entry): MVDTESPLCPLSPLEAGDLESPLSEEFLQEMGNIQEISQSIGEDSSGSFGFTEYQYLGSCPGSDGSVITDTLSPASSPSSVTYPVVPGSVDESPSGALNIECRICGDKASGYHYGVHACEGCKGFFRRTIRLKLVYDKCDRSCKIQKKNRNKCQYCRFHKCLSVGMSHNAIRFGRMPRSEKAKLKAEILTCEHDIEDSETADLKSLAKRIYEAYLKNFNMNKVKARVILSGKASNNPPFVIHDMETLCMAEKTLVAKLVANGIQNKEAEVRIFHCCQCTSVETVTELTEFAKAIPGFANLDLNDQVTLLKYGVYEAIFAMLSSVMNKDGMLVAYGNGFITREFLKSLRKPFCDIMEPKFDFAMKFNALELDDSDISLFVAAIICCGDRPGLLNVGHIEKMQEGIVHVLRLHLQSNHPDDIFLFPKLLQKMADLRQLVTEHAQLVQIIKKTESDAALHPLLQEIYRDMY
# [2] = biological target: T2, Peroxisome proliferator-activated receptor gamma (Homo sapiens, UniProt P37231)
# T2 sequence (P37231 whole entry): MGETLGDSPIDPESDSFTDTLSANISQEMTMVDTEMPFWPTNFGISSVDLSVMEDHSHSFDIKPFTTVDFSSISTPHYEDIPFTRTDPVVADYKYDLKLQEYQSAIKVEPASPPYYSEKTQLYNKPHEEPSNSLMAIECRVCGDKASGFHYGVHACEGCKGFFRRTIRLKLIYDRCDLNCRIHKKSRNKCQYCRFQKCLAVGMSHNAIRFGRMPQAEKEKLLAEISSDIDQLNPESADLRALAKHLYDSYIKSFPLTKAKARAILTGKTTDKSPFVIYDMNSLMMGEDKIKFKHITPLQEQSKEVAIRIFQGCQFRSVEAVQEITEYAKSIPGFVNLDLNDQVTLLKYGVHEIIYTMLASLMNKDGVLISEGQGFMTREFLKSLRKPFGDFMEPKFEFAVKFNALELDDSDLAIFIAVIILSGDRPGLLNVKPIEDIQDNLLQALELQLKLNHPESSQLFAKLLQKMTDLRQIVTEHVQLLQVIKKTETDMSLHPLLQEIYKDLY
# Description: Displacement of [3H]rosiglitazone from human PPAR gamma by SPA assay
# [3] = biological target: T2, Peroxisome proliferator-activated receptor gamma; assay type: functional, cell-based, Huh-7
# Description: Functional activity at human PPAR gamma in Huh7 cells by transactivation assay
# [4] = biological target: T3, Peroxisome proliferator-activated receptor delta (Homo sapiens, UniProt Q03181)
# T3 sequence (Q03181 whole entry): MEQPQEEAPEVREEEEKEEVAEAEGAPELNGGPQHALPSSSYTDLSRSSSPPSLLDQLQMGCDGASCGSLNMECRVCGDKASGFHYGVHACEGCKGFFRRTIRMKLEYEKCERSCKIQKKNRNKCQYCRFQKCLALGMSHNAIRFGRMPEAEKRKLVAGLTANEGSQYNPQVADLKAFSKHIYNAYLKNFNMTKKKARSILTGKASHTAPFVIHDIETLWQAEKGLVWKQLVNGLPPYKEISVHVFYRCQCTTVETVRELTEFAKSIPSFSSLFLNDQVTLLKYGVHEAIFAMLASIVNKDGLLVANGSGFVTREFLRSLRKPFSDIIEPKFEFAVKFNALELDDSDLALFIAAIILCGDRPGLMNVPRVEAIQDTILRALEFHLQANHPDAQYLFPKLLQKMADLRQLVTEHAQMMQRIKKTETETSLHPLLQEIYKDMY
# Description: Functional activity at human PPAR delta in Huh7 cells by transactivation assay
# [5] = Area under curve (0-24) in male BALB/c mice administered with 9.7 mg/kg, iv; assay type: ADME, organism-based; parameters: dose 9.7 mg/kg, route intravenous; conditions: mouse, in vivo
# [6] = Volume of distribution in male BALB/c mice administered with 9.7 mg/kg, iv; assay type: ADME, organism-based; parameters: dose 9.7 mg/kg, route intravenous; conditions: mouse, in vivo, read-out: Vss
# [7] = Maximum concentration in male BALB/c mice administered with 35 mg/kg, po; assay type: ADME, organism-based; parameters: dose 35 mg/kg, route oral; conditions: mouse, in vivo
# [8] = Half life in male BALB/c mice administered with 9.7 mg/kg, iv; assay type: ADME, organism-based; parameters: dose 9.7 mg/kg, route intravenous; conditions: mouse, in vivo
# [9] = Area under curve (0-24) in male BALB/c mice administered with 35 mg/kg, po; assay type: ADME, organism-based; parameters: dose 35 mg/kg, route oral; conditions: mouse, in vivo
# [10] = Oral bioavailability in male BALB/c mice administered with 35 mg/kg, po; assay type: ADME, organism-based; conditions: mouse, in vivo
# [11] = Half life in male BALB/c mice administered with 35 mg/kg, po; assay type: ADME, organism-based; parameters: dose 35 mg/kg, route oral; conditions: mouse, in vivo
# [12] = Time taken to achieve maximum concentration in male BALB/c mice administered with 35 mg/kg, po; assay type: ADME, organism-based; parameters: dose 35 mg/kg, route oral; conditions: mouse, in vivo
# [13] = Clearance in male BALB/c mice administered with 9.7 mg/kg, iv; assay type: ADME, organism-based; parameters: dose 9.7 mg/kg, route intravenous; conditions: mouse, in vivo
# [14] = tested on: Mus musculus; test: Effect on reduction of plasma glucose in orally dosed KKAy/TaJcl mice at 30 mg/kg in a 10 day study; assay type: functional, organism-based; parameters: dose 30 mg/kg
# [15] = tested on: Mus musculus; test: Effect on reduction of plasma glucose in orally dosed KKAy/TaJcl mice at 10 mg/kg in a 10 day study; assay type: functional, organism-based; parameters: dose 10 mg/kg
smiles,measurement,setting,value
CCCc1c(OCCCOc2cccc3c2ccn3CC(=O)O)ccc2c(C(F)(F)F)noc12,EC50,[1],186 nM
same,IC50,[2],1990 nM
same,EC50,[3],2390 nM
same,EC50,[4],610 nM
CCCc1c(OCCCCCOc2cccc3c2ccn3CC(=O)O)ccc2c(C(F)(F)F)noc12,IC50,[2],1780 nM
same,EC50,[3],> 10000 nM
CCCc1c(OCCCCOc2cccc3c2ccn3CC(=O)O)ccc2c(C(F)(F)F)noc12,EC50,[1],> 10000 nM
same,IC50,[2],774 nM
same,EC50,[3],1980 nM
same,EC50,[4],> 10000 nM
CCCc1c(OCCCOc2cccc3c2ccn3CC(=O)O)ccc2cc[nH]c12,EC50,[1],1210 nM
same,IC50,[2],4810 nM
same,EC50,[3],1810 nM
same,EC50,[4],420 nM
CCCc1c(OCCCOc2cccc3c2ccn3CC(=O)O)ccc2c(-c3ccccc3)coc12,EC50,[1],169 nM
same,IC50,[2],3970 nM
same,EC50,[3],4150 nM
same,EC50,[4],2130 nM
CCCc1c(OCCC(C)CCOc2ccc3c(ccn3CC(=O)O)c2)ccc2c(C(F)(F)F)noc12 (stereo not drawn),IC50,[2],1370 nM
same,EC50,[3],> 10000 nM
CCCc1c(OCCOc2ccc3c(ccn3CC(=O)O)c2)ccc2c(C(F)(F)F)noc12,EC50,[1],311 nM
same,IC50,[2],422 nM
same,EC50,[3],690 nM
same,EC50,[4],125 nM
CCCc1c(OCCCOc2ccc3c(ccn3CC(=O)O)c2)ccc2c(C#N)c[nH]c12,EC50,[1],5210 nM
same,IC50,[2],759 nM
same,EC50,[3],9170 nM
same,EC50,[4],2620 nM
CCCc1c(OCCCOc2ccc3c(ccn3C(CC)C(=O)O)c2)ccc2c(C(F)(F)F)noc12 (stereo not drawn),IC50,[2],1710 nM
same,EC50,[3],5900 nM
CCCc1c(OCCCOc2cccc3c2ccn3C(CC)C(=O)O)ccc2c(C(F)(F)F)noc12 (stereo not drawn),IC50,[2],1280 nM
same,EC50,[3],> 10000 nM
CCCc1c(OCCCOc2ccc3c(ccn3CC(=O)O)c2)ccc2c(-c3ccccc3)noc12,EC50,[1],18 nM
same,IC50,[2],120 nM
same,EC50,[3],290 nM
same,EC50,[4],80 nM
CCCc1c(OCCCOc2ccc3c(ccn3CC(=O)O)c2)ccc2c(C(=O)C(F)(F)F)c[nH]c12,EC50,[1],2200 nM
same,IC50,[2],2410 nM
same,EC50,[3],> 10000 nM
same,EC50,[4],9170 nM
CCCc1c(OCCC(C)CCOc2cccc3c2ccn3CC(=O)O)ccc2c(C(F)(F)F)noc12 (stereo not drawn),IC50,[2],1450 nM
same,EC50,[3],> 10000 nM
CCCc1c(OCCCCOc2ccc3c(ccn3CC(=O)O)c2)ccc2c(C(F)(F)F)noc12,EC50,[1],1040 nM
same,IC50,[2],105 nM
same,EC50,[3],280 nM
same,EC50,[4],243 nM
CCCc1c(OCCCOc2ccc3c(ccn3CC(=O)O)c2)ccc2c(C(F)(F)F)noc12 [listing 1 of 2 here],EC50,[1],14 nM
CCCc1c(OCCCCCOc2ccc3c(ccn3CC(=O)O)c2)ccc2c(C(F)(F)F)noc12,IC50,[2],1050 nM
same,EC50,[3],1490 nM
CCCc1c(OCCCOc2ccc3c(ccn3CCC(=O)O)c2)ccc2c(C(F)(F)F)noc12,IC50,[2],584 nM
same,EC50,[3],1200 nM
CCCc1c(OCCCOc2cccc3c2ccn3CC(=O)O)ccc2cc(-c3ccccc3)[nH]c12,EC50,[1],500 nM
same,IC50,[2],1680 nM
same,EC50,[3],2820 nM
same,EC50,[4],3340 nM
CCCc1c(OCCCOc2ccc3c(ccn3Cc3nn[nH]n3)c2)ccc2c(C(F)(F)F)noc12,EC50,[1],474 nM
same,IC50,[2],1120 nM
same,EC50,[3],898 nM
same,EC50,[4],370 nM
CCCc1c(OCCOc2cccc3c2ccn3CC(=O)O)ccc2c(C(F)(F)F)noc12,IC50,[2],1490 nM
same,EC50,[3],> 10000 nM
CCCc1c(OCCCOc2cccc3c2ccn3CCC(=O)O)ccc2c(C(F)(F)F)noc12,IC50,[2],1100 nM
same,EC50,[3],2190 nM
CCCc1c(OCCCOc2cccc3c2ccn3CC(=O)O)ccc2c(-c3ccccc3)noc12,EC50,[1],2 nM
same,IC50,[2],127 nM
same,EC50,[3],430 nM
same,EC50,[4],320 nM
CCCc1c(OCCCOc2ccc3ccn(CC(=O)O)c3c2)ccc2c(C(F)(F)F)noc12,EC50,[1],1820 nM
same,IC50,[2],1050 nM
same,EC50,[3],1350 nM
same,EC50,[4],80 nM
CCCc1c(OCC(C)COc2cccc3c2ccn3CC(=O)O)ccc2c(C(F)(F)F)noc12 (stereo not drawn),IC50,[2],1300 nM
same,EC50,[3],3030 nM
CCCc1c(OCCCOc2ccc3c(ccn3CC(=O)[O-])c2)ccc2c(C(F)(F)F)noc12.[Na+],AUC,[5],181 µg·h/mL
same,Vd,[6],0.4 L/kg
same,Cmax,[7],59 µg/mL
same,half-life,[8],6.9 h
same,AUC,[9],652 µg·h/mL
same,bioavailability,[10],100%
same,half-life,[11],7.8 h
same,Tmax,[12],4.7 h
same,clearance,[13],0.9 mL/min/kg
CCCc1c(OCCCOc2ccc3c(ccn3CC(=O)O)c2)ccc2c(C(F)(F)F)noc12 [listing 2 of 2 here],Activity,[14],Active
same,Activity,[15],Active
CCCc1c(OCCCOc2cccc3c2ccn3CC(=O)O)ccc2cc(-c3ccccc3)oc12,EC50,[1],> 10000 nM
same,IC50,[2],1950 nM
same,EC50,[3],> 10000 nM
same,EC50,[4],7740 nM
